As a reminder, the IC50 is the concentration at which inhibition is half-maximal.

Like-named read-outs stand apart in the source and are kept apart here.

The source of these data is article PMC3331929 (Antiviral Research, 2012).

What all share (assay type): biochemical
Assay [1] deals with T1, WNV NS2B/NS3pro (West Nile virus, UniProt Q9Q6P4). Conditions: read-out: IC50 (μM) a; tri-peptide substrate Boc-GKR-AMC, inhibitor 0–40 μM.
For assay [2], the target named is T1, WNV NS2B/NS3pro. The note with it: read-out: IC50 (μM) b; tetra-peptide substrate Bz-Nle-KRR-AMC.
For assay [3], the target named is T1, WNV NS2B/NS3pro. Briefly: In vitro protease assay, percent inhibition at a fixed inhibitor concentration. The note with it: aprotinin as positive control, final concentration 2–10 μM.

T1 sequence (Q9Q6P4 1506-1683): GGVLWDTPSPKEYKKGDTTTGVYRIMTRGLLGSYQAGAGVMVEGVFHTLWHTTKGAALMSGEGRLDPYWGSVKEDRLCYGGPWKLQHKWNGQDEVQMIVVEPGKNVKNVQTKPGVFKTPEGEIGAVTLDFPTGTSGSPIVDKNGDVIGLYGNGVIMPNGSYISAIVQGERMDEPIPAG
T1 sequence (Q9Q6P4 1428-1467): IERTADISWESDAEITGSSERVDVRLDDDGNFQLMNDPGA

Turning to `Oc1c(C(Nc2nccs2)c2ccccc2)ccc2cccnc12` (stereo not drawn) [compound 23], the IC50 on WNV NS2B/NS3pro [1] was determined as 9.85 ± 0.34 µM; at WNV NS2B/NS3pro [2] it was 12.9 ± 0.54 µM.
With aprotinin, the “inhibition of WNV NS2B-NS3pro, positive control” value against WNV NS2B/NS3pro [3] is 100%.
